From patent US6355799B1, “Substituted benzene compounds, process for their preparation, and herbicidal and defoliant compositions containing them” (ISK Americas Incorporated, priority 1997, dated 2002)

Assays:
Format in all cases: in vivo
[1] = tested on: ivyleaf morningglory (Ipomoea hederacea, IPOHE); assay: Post-emerge test, greenhouse herbicide activity screening; settings: post-emerge, phytotoxicity rating 0-100 at 14 days after application
Procedure, shortened: (§1)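 Fourteen days after spraying, crop and weed injury was graded visually from 0, no effect, to 100, every plant dead. Test substances were dissolved in acetone and applied at 15–1000 g ai/ha with a flat-fan nozzle. Application was either pre-emergence, one day after sowing, or post-emergence at the 2–3 leaf stage.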

[2] = tested on: large crabgrass (Digitaria sanguinalis, DIGSA); assay: as above; settings: post-emerge, phytotoxicity rating 0-100 at 14 days after application
Procedure, shortened: as §1

[3] = tested on: lambsquarters (Chenopodium album, CHEAL); assay: as above; settings: post-emerge, phytotoxicity rating 0-100 at 14 days after application
Procedure, shortened: as §1

[4] = tested on: barnyardgrass (Echinochloa crus-galli, ECHCG); assay: as above; settings: post-emerge, phytotoxicity rating 0-100 at 14 days after application
Procedure, shortened: as §1

[5] = tested on: velvetleaf (Abutilon theophrasti, ABUTH); assay: as above; settings: post-emerge, phytotoxicity rating 0-100 at 14 days after application
Procedure, shortened: as §1

[6] = tested on: green foxtail (Setaria viridis, SETVI); assay: as above; settings: post-emerge, phytotoxicity rating 0-100 at 14 days after application
Procedure, shortened: as §1

[7] = tested on: johnsongrass (Sorghum halepense, SORHA); assay: as above; settings: post-emerge, phytotoxicity rating 0-100 at 14 days after application
Procedure, shortened: as §1

[8] = tested on: sicklepod (Cassia obtusifolia, CASOB); assay: as above; settings: post-emerge, phytotoxicity rating 0-100 at 14 days after application
Procedure, shortened: as §1

[9] = tested on: redroot pigweed (Amaranthus retroflexus, AMARE); assay: as above; settings: post-emerge, phytotoxicity rating 0-100 at 14 days after application
Procedure, shortened: as §1

[10] = tested on: field corn (Zea mays L., var. Dekalb 535, CORN); assay: Post-emerge test, crop safety; settings: post-emerge, crop damage rating 0-100 at 14 days after application
Procedure, shortened: (§2)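 Rating: 0–100 visual injury, 14 DAA. Application: acetone, 187 l/ha, 15–1000 g ai/ha, flat-fan track sprayer with nozzle 40–45 cm above soil or canopy. Post-emerge runs used 0.25% v/v surfactant on 2–3 leaf plants.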

[11] = tested on: upland rice (Oryza sp., var. Tebonnet, RICE); assay: Post-emerge test, crop safety; settings: post-emerge, crop damage rating 0-100 at 14 days after application
Procedure, shortened: as §2

[12] = tested on: field corn (Zea mays L., var. Dekalb 535, CORN); assay: Pre-emerge test, crop safety; settings: crop damage, pre-emerge, phytotoxicity rating 0-100 at 14 days after application
Procedure, shortened: (§3)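 Plants grown in 10 cm pots of sandy loam mix received acetone-dissolved compounds through a moving flat-fan nozzle. Doses ranged from 15 to 1000 g ai/ha. Pre-emerge pots were seeded one day earlier, post-emerge pots 8–21 days earlier. Fourteen days on, each pot was graded 0–100 for damage.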

[13] = tested on: upland rice (Oryza sp., var. Tebonnet, RICE); assay: Pre-emerge test, crop safety; settings: crop damage, pre-emerge, phytotoxicity rating 0-100 at 14 days after application
Procedure, shortened: as §3

[14] = tested on: ivyleaf morningglory (Ipomoea hederacea, IPOHE); assay: Pre-emerge test, greenhouse herbicide activity screening; settings: pre-emerge, phytotoxicity rating 0-100 at 14 days after application
Procedure, shortened: (§4)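 Compounds in acetone were track-sprayed at 15–1000 g ai/ha: pre-emergence onto soil sown the previous day, then top-watered to incorporate and later bottom-watered; post-emergence onto 2–3 leaf plants with 0.25% v/v surfactant, bottom-watered only. Ratings on a 0–100 phytotoxicity scale were taken at day 14.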

[15] = tested on: large crabgrass (Digitaria sanguinalis, DIGSA); assay: as above; settings: pre-emerge, phytotoxicity rating 0-100 at 14 days after application
Procedure, shortened: as §4

[16] = tested on: lambsquarters (Chenopodium album, CHEAL); assay: as above; settings: pre-emerge, phytotoxicity rating 0-100 at 14 days after application
Procedure, shortened: as §4

[17] = tested on: barnyardgrass (Echinochloa crus-galli, ECHCG); assay: as above; settings: pre-emerge, phytotoxicity rating 0-100 at 14 days after application
Procedure, shortened: as §4

[18] = tested on: velvetleaf (Abutilon theophrasti, ABUTH); assay: as above; settings: pre-emerge, phytotoxicity rating 0-100 at 14 days after application
Procedure, shortened: as §4

[19] = tested on: green foxtail (Setaria viridis, SETVI); assay: as above; settings: pre-emerge, phytotoxicity rating 0-100 at 14 days after application
Procedure, shortened: as §4

[20] = tested on: common ragweed (Ambrosia artemisizfolia L., AMBEL); assay: as above; settings: pre-emerge, phytotoxicity rating 0-100 at 14 days after application
Procedure, shortened: as §4

[21] = tested on: johnsongrass (Sorghum halepense, SORHA); assay: as above; settings: pre-emerge, phytotoxicity rating 0-100 at 14 days after application
Procedure, shortened: as §4

[22] = tested on: sicklepod (Cassia obtusifolia, CASOB); assay: as above; settings: pre-emerge, phytotoxicity rating 0-100 at 14 days after application
Procedure, shortened: as §4

[23] = tested on: redroot pigweed (Amaranthus retroflexus, AMARE); assay: as above; settings: pre-emerge, phytotoxicity rating 0-100 at 14 days after application
Procedure, shortened: as §3

Question: COc1c(Cl)cc(F)c(-n2ncc(C(F)(F)F)c(C)c2=O)c1NC(=O)c1ccc2ccccc2c1 [11-13] was tested. Which “Post-emerge Herbicidal Activity IPOHE” value ([1]; 63 g ai/ha) did it give?
Answer: 98

Question: And the “Post-emerge Herbicidal Activity IPOHE” value ([1]; 250 g ai/ha)?
Answer: 98

Question: What about the “Post-emerge Herbicidal Activity DIGSA” value ([2]; 63 g ai/ha) of the same molecule?
Answer: 40

Question: What about the “Post-emerge Herbicidal Activity DIGSA” value ([2]; 250 g ai/ha) of the same molecule?
Answer: 60

Question: And the “Post-emerge Herbicidal Activity CHEAL” value ([3]; 63 g ai/ha)?
Answer: 100

Question: What about the “Post-emerge Herbicidal Activity CHEAL” value ([3]; 250 g ai/ha) of the same molecule?
Answer: 100

Question: What about the “Post-emerge Herbicidal Activity ECHCG” value ([4]; 63 g ai/ha) of the same molecule?
Answer: 65

Question: What about the “Post-emerge Herbicidal Activity ECHCG” value ([4]; 250 g ai/ha) of the same molecule?
Answer: 55

Question: And the “Post-emerge Herbicidal Activity ABUTH” value ([5]; 63 g ai/ha)?
Answer: 95

Question: What about the “Post-emerge Herbicidal Activity ABUTH” value ([5]; 250 g ai/ha) of the same molecule?
Answer: 100

Question: And the “Post-emerge Herbicidal Activity SETVI” value ([6]; 63 g ai/ha)?
Answer: 55

Question: And the “Post-emerge Herbicidal Activity SETVI” value ([6]; 250 g ai/ha)?
Answer: 40

Question: What about the “Post-emerge Herbicidal Activity SORHA” value ([7]; 63 g ai/ha) of the same molecule?
Answer: 0

Question: What about the “Post-emerge Herbicidal Activity SORHA” value ([7]; 250 g ai/ha) of the same molecule?
Answer: 15

Question: What about the “Post-emerge Herbicidal Activity CASOB” value ([8]; 63 g ai/ha) of the same molecule?
Answer: 85

Question: What about the “Post-emerge Herbicidal Activity CASOB” value ([8]; 250 g ai/ha) of the same molecule?
Answer: 85

Question: And the “Post-emerge Herbicidal Activity AMARE” value ([9]; 63 g ai/ha)?
Answer: 100

Question: What about the “Post-emerge Herbicidal Activity AMARE” value ([9]; 250 g ai/ha) of the same molecule?
Answer: 100

Question: What about the “Post-emerge Herbicidal Activity CORN” value ([10]; 63 g ai/ha) of the same molecule?
Answer: 45

Question: What about the “Post-emerge Herbicidal Activity CORN” value ([10]; 250 g ai/ha) of the same molecule?
Answer: 45

Question: What about the “Post-emerge Herbicidal Activity RICE” value ([11]; 63 g ai/ha) of the same molecule?
Answer: 45

Question: And the “Post-emerge Herbicidal Activity RICE” value ([11]; 250 g ai/ha)?
Answer: 65

Question: And the “Pre-emerge Herbicidal Activity CORN” value ([12]; rate 63 g ai/ha)?
Answer: 0

Question: What about the “Pre-emerge Herbicidal Activity CORN” value ([12]; rate 250 g ai/ha) of the same molecule?
Answer: 0

Question: And the “Pre-emerge Herbicidal Activity RICE” value ([13]; rate 63 g ai/ha)?
Answer: 0

Question: What about the “Pre-emerge Herbicidal Activity RICE” value ([13]; rate 250 g ai/ha) of the same molecule?
Answer: 15

Question: What about the “Pre-emerge Herbicidal Activity IPOHE” value ([14]; rate 63 g ai/ha) of the same molecule?
Answer: 65

Question: And the “Pre-emerge Herbicidal Activity IPOHE” value ([14]; rate 250 g ai/ha)?
Answer: 80

Question: And the “Pre-emerge Herbicidal Activity DIGSA” value ([15]; rate 63 g ai/ha)?
Answer: 60

Question: And the “Pre-emerge Herbicidal Activity DIGSA” value ([15]; rate 250 g ai/ha)?
Answer: 100

Question: What about the “Pre-emerge Herbicidal Activity CHEAL” value ([16]; rate 63 g ai/ha) of the same molecule?
Answer: 100

Question: What about the “Pre-emerge Herbicidal Activity CHEAL” value ([16]; rate 250 g ai/ha) of the same molecule?
Answer: 100

Question: And the “Pre-emerge Herbicidal Activity ECHCG” value ([17]; rate 63 g ai/ha)?
Answer: 30

Question: What about the “Pre-emerge Herbicidal Activity ECHCG” value ([17]; rate 250 g ai/ha) of the same molecule?
Answer: 80

Question: What about the “Pre-emerge Herbicidal Activity ABUTH” value ([18]; rate 63 g ai/ha) of the same molecule?
Answer: 95

Question: What about the “Pre-emerge Herbicidal Activity ABUTH” value ([18]; rate 250 g ai/ha) of the same molecule?
Answer: 100

Question: What about the “Pre-emerge Herbicidal Activity SETVI” value ([19]; rate 63 g ai/ha) of the same molecule?
Answer: 70

Question: What about the “Pre-emerge Herbicidal Activity SETVI” value ([19]; rate 250 g ai/ha) of the same molecule?
Answer: 100

Question: And the “Pre-emerge Herbicidal Activity AMBEL” value ([20]; rate 63 g ai/ha)?
Answer: 30

Question: What about the “Pre-emerge Herbicidal Activity AMBEL” value ([20]; rate 250 g ai/ha) of the same molecule?
Answer: 60

Question: And the “Pre-emerge Herbicidal Activity SORHA” value ([21]; rate 63 g ai/ha)?
Answer: 0

Question: What about the “Pre-emerge Herbicidal Activity SORHA” value ([21]; rate 250 g ai/ha) of the same molecule?
Answer: 40

Question: And the “Pre-emerge Herbicidal Activity CASOB” value ([22]; rate 63 g ai/ha)?
Answer: 0

Question: And the “Pre-emerge Herbicidal Activity CASOB” value ([22]; rate 250 g ai/ha)?
Answer: 85

Question: And the “Pre-emerge Herbicidal Activity AMARE” value ([23]; rate 63 g ai/ha)?
Answer: 100

Question: And the “Pre-emerge Herbicidal Activity AMARE” value ([23]; rate 250 g ai/ha)?
Answer: 10
